Measurements from patent US4994376A, “Detection of bacteroides gingivalis” (priority 1987, dated 1991).
Where two headings read alike, the source gives them in different places.

Legend:
Type in all cases: biochemical
[1] = test system: B. asaccharolyticus; details: β-naphthylamine liberated after 60 minutes, 37° C.
Procedure, shortened: (§1)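 N-CBz-glycyl-glycyl-L-arginine-β-naphthylamide was hydrolysed for 1 hour at 37 °C, then coupled with Fast Garnet GBC (0.5 mg/ml) in 1M acetic acid buffer, pH 4.2, containing 10% Tween 20. After 15 minutes at room temperature, absorbance was read at 525 nm against a no-enzyme blank; activity is given as nmol β-naphthylamine released per 60 min.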

[2] = test system: B. levii; details: β-naphthylamine liberated after 60 minutes, 37° C.
Procedure, shortened: as §1

[3] = test system: B. loescheii; details: β-naphthylamine liberated after 60 minutes, 37° C.
Procedure, shortened: as §1

[4] = test system: B. mel. ss. intermedius; details: β-naphthylamine liberated after 60 minutes, 37° C.
Procedure, shortened: as §1

[5] = test system: Bacteroides gingivalis; details: β-naphthylamine liberated after 60 minutes, 37° C.
Procedure, shortened: as §1

[6] = test system: C. ochracea; details: strain ATCC 27872; β-naphthylamine liberated after 60 minutes, 37° C.
Procedure, shortened: as §1

[7] = test system: Capnocytophaga gingivalis; details: strain ATCC 33624; β-naphthylamine liberated after 60 minutes, 37° C.
Procedure, shortened: as §1

[8] = test system: Capnocytophaga sp.; details: strain JD3-5; β-naphthylamine liberated after 60 minutes, 37° C.
Procedure, shortened: as §1

[9] = test system: B. corporis; test: Aminopeptidase activity on β-naphthylamide substrates; details: strain ATCC 33547; β-naphthylamine liberated after 60 minutes, 37° C.
Procedure, shortened: as §1

[10] = test system: B. denticola; test: as above; details: strain ATCC 33185; β-naphthylamine liberated after 60 minutes, 37° C.
Procedure, shortened: as §1

[11] = test system: B. intermedius; test: as above; details: strain ATCC 25611; β-naphthylamine liberated after 60 minutes, 37° C.
Procedure, shortened: as §1

[12] = test system: B. melaninogenicus; test: as above; details: strain ATCC 25845; β-naphthylamine liberated after 60 minutes, 37° C.
Procedure, shortened: as §1

[13] = test system: C. sputigena; test: as above; details: strain ATCC 33123; β-naphthylamine liberated after 60 minutes, 37° C.
Procedure, shortened: as §1

[14] = test system: "Anaerobic vibrio"; details: strain SN2T2; β-naphthylamine liberated after 60 minutes, 37° C.
Procedure, shortened: (§2)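 Readout: absorbance at 525 nm (or visual match to standard solutions) after diazo coupling with Fast Garnet GBC. Substrate N-CBz-glycyl-glycyl-L-arginine-β-naphthylamide, 1 h, 37° C. Values = nmol β-naphthylamine released per 60 min; no-enzyme mixture as control.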

[15] = test system: A. viscosus; details: β-naphthylamine liberated after 60 minutes, 37° C.
Procedure, shortened: as §2

[16] = test system: Actinobacillus actinomycetemcomitans; details: β-naphthylamine liberated after 60 minutes, 37° C.
Procedure, shortened: as §2

[17] = test system: Fusobacterium nucleatum; details: β-naphthylamine liberated after 60 minutes, 37° C.
Procedure, shortened: as §2

[18] = test system: S. mutans; details: strain ATCC 25175; β-naphthylamine liberated after 60 minutes, 37° C.
Procedure, shortened: as §2

[19] = test system: S. sanguis; details: β-naphthylamine liberated after 60 minutes, 37° C.
Procedure, shortened: as §2

[20] = test system: Streptococcus mitis; details: β-naphthylamine liberated after 60 minutes, 37° C.
Procedure, shortened: as §2

[21] = test system: Veillonella sp.; details: strain SE1M2; β-naphthylamine liberated after 60 minutes, 37° C.
Procedure, shortened: as §2

[22] = test system: A. equuli; test: Aminopeptidase activity on β-naphthylamide substrates; details: strain ATCC 19392; β-naphthylamine liberated after 60 minutes, 37° C.
Procedure, shortened: as §2

[23] = test system: A. suis; test: as above; details: strain ATCC 15557; β-naphthylamine liberated after 60 minutes, 37° C.
Procedure, shortened: as §2

[24] = test system: F. periodonticum; test: as above; details: strain EK1-15; β-naphthylamine liberated after 60 minutes, 37° C.
Procedure, shortened: as §2

[25] = test system: Haemophilus aphrophilus; test: as above; details: β-naphthylamine liberated after 60 minutes, 37° C.
Procedure, shortened: as §2

[26] = test system: L. fermentum; test: as above; details: strain ATCC 11581; β-naphthylamine liberated after 60 minutes, 37° C.
Procedure, shortened: as §2

[27] = test system: Lactobacillus casei; test: as above; details: β-naphthylamine liberated after 60 minutes, 37° C.
Procedure, shortened: as §2

[28] = test system: S. salivarius; test: as above; details: β-naphthylamine liberated after 60 minutes, 37° C.
Procedure, shortened: as §2

NC(=O)[C@@H](N)CCC(=O)O [α-Glu, α -glutamine]
Aminopeptidase activity ([1]; strain 536B): 0 nmol | Aminopeptidase activity ([1]; strain ATCC 18569): 0 nmol | Aminopeptidase activity ([1]; strain ATCC 25260): 0 nmol | Aminopeptidase activity ([1]; strain ATCC 27067): 0 nmol | Aminopeptidase activity ([1]; strain NY446): 0 nmol | Aminopeptidase activity ([2]; strain 18-1-5): 0 nmol | Aminopeptidase activity ([2]; strain 18-1-8): 2 nmol | Aminopeptidase activity ([3]; strain ATCC 15930): 0 nmol | Aminopeptidase activity ([3]; strain VPI4196): 0 nmol | Aminopeptidase activity ([4]; strain ATCC 25261): 0 nmol | Aminopeptidase activity ([4]; strain ATCC 33563): 0 nmol | Aminopeptidase activity ([4]; strain NCTC 9336): 0 nmol | Aminopeptidase activity ([5]; strain 9-14K-1): 0 nmol | Aminopeptidase activity ([5]; strain 11-1-2): 0 nmol | Aminopeptidase activity ([5]; strain 381): 0 nmol | Aminopeptidase activity ([5]; strain 1021): 0 nmol | Aminopeptidase activity ([5]; strain ATCC 33277): 1 nmol | Aminopeptidase activity ([5]; strain FAYE 19m-1): 0 nmol | Aminopeptidase activity [6]: 5 nmol | Aminopeptidase activity [7]: 5 nmol | Aminopeptidase activity [8]: 0 nmol | Aminopeptidase activity [9]: 0 nmol | Aminopeptidase activity [10]: 0 nmol | Aminopeptidase activity [11]: 0 nmol | Aminopeptidase activity [12]: 1 nmol | Aminopeptidase activity [13]: 7 nmol | Aminopeptidase activity [14]: 0 nmol | Aminopeptidase activity ([15]; strain ATCC 19246): 0 nmol | Aminopeptidase activity ([15]; strain T14V): 0 nmol | Aminopeptidase activity ([16]; strain 67): 0 nmol | Aminopeptidase activity ([16]; strain 75): 0 nmol | Aminopeptidase activity ([16]; strain ATCC 29523): 0 nmol | Aminopeptidase activity ([16]; strain NCTC 9709): 0 nmol | Aminopeptidase activity ([16]; strain Y4): 0 nmol | Aminopeptidase activity ([17]; strain 2): 0 nmol | Aminopeptidase activity ([17]; strain ATCC 25586): 0 nmol | Aminopeptidase activity ([17]; strain D31A-24): 1 nmol | Aminopeptidase activity [18]: 0 nmol | Aminopeptidase activity ([19]; strain ATCC 10556): 0 nmol | Aminopeptidase activity ([19]; strain ATCC 10557): 0 nmol | Aminopeptidase activity ([20]; strain ATCC 9815): 0 nmol | Aminopeptidase activity ([20]; strain ATCC 15909): 0 nmol | Aminopeptidase activity ([20]; strain ATCC 15911): 0 nmol | Aminopeptidase activity ([20]; strain ATCC 15912): 0 nmol | Aminopeptidase activity [21]: 0 nmol | Aminopeptidase activity [22]: 0 nmol | Aminopeptidase activity [23]: 0 nmol | Aminopeptidase activity [24]: 0 nmol | Aminopeptidase activity ([25]; strain ATCC 13252): 0 nmol | Aminopeptidase activity ([25]; strain ATCC 19415): 0 nmol | Aminopeptidase activity ([25]; strain NCTC 5908): 0 nmol | Aminopeptidase activity [26]: 0 nmol | Aminopeptidase activity ([27]; strain ATCC 7469): 0 nmol | Aminopeptidase activity ([27]; strain ATCC 11578): 3 nmol | Aminopeptidase activity ([27]; strain ATCC 11582): 3 nmol | Aminopeptidase activity ([28]; strain ATCC 9759): 0 nmol | Aminopeptidase activity ([28]; strain ATCC 25975): 0 nmol
